Test results reported in paper PMC8742957, “Functional signaling test identifies HER2 negative breast cancer patients who may benefit from c-Met and pan-HER combination therapy” (Cell Communication and Signaling : CCS, 2022).
Like-named read-outs stand apart in the source and are kept apart here.

Key:
[1] = test system: HER-family receptors; assay: CELsignia real-time live cell IC50 titration of pan-HER inhibitors against NRG1b/EGF stimulation, primary breast cancer cells; format: cell-based, human; conditions: six primary breast cancer cell samples with hyperactive HER- and c-Met signaling; inhibitor 18 h before NRG1b/EGF; Poziotinib three, Tucatinib five samples
Procedure: Owing to limited numbers of non-passaged or low passaged primary cells, 1000-fold, five-point dose response for antagonists to HER-family and c-Met receptors was performed for each corresponding agonist stimulus (i.e. NRG1b/EGF for HER-family activation and HGF for c-Met activation) in a live-cell CELsignia assay and the observed values were averaged. Drug additions were made 18 h prior to agonist addition. The measurand recording period of four hours began after the agonist addition. Response was plotted as a percent of the maximum response to the agonist observed in the absence of any antagonist using GraphPad Prism software and IC50 values were derived using non-linear regression.
A representative dose–response curve of cells from patient R66 to stimulation with NRG1b/EGF following pre-treatment with the indicated antagonists is shown in Fig. 4a. A total of six primary cell lines isolated from as many patients were included in this IC50 titration test and the average values are summarized in Table 1. The IC50 values for pan-HER antagonists against NRG1b/EGF stimulation determined from our real-time live cell assay align with what was previously reported in cell-free assays.

[2] = test system: HCC1954 xenograft; conditions: NSG mice; for Tumor reduction, drug arm versus control: oral gavage QD 21 doses, Neratinib 40, Tepotinib 50, Erlotinib 25 mg/kg
Procedure: A selection of an appropriate cell line was necessary owing greatly to the limited commercially available tumorigenic breast cancer mouse models with the abnormal signaling function of interest to this study. Female NSG (NOD SCID gamma; NOD.Cg-Prkdc^scid Il2rg^tm1Wjl/SzJ) mice were procured from Jackson Labs (Bar Harbor, Maine, USA). The mice were injected in their fat pad with HCC1954 cells dissolved in 150 µL of a 50% Matrigel solution. Tumors were allowed to form until they reached a minimum average size of 150 mm^3. At this time, the tumor bearing cohort was divided up into 10-mouse treatment groups of uniform distribution of tumor sizes, just prior to initiating treatment. Tumor size and body weights were measured a minimum of twice per week. Upon completion of the study period, the mice were euthanized for necropsy and sample/tissue collection at the study endpoint or when tumor size reached ≥ 2 cm^3.
Female NSG mice, 4–5 weeks old, were injected subcutaneously in the left mammary fat pad with two million HCC1954 cells. After the average tumor volume reached 150 mm^3 the mice were randomly assigned into six cohorts of 10 mice each (n = 10). Each of the experimental mice were dosed by oral gavage with 100 µL dosing solution daily (QD) for 21 days (21 doses). […] In order to determine the effects of the pan-HER and c-Met antagonists on tumor size, the tumor volume (in mm^3) was measured and plotted as shown in Fig. 8b.

[3] = target: T1, c-Met (Homo sapiens, UniProt P08581); assay: Cross-talk analysis, inhibition of HGF signal in patient primary tumor cells (CELsignia); conditions: HGF 50 pM, Erlotinib 500 nM, Tucatinib 250 nM, Tepotinib 50 nM, four-hour period
[4] = test system: HER/c-met signaling in HCC1954 cells; assay: CELsignia analysis of HCC1954 cells, antagonists against cocktail of agonists (NRG, EGF, HGF); format: cell-based, human; conditions: cocktail NRG 3 nM, EGF 0.3 nM, HGF 50 pM, errors are standard deviation
Procedure: During the combined drug testing, we investigated the benefit of targeting HER1 specifically in combination with c-Met.
2.5 3x GF (N RG 3 n M, E G F 0. 3 nM , HG F 50 p M)
Fig. S6: Impedance time course example for antagonist effects on a cocktail of agonists
(NRG, EGF and HGF) for HCC1954 used to derive data in Table 7 (N of 4 experiments).
Also included on the plot timecourse are cells only (HSSM, red line) untreated by agonist

[5] = test system: HER-family (EGF stimulation); assay: Impedance test IC50 with single growth factor EGF (set-up of median effects, HCC1954); format: cell-based, human; conditions: neratinib + EGF
Source text: Fig. S5: Median effects plots.
EGF on HCC1954. When CI>1,
and Talalay. CI<1 is indicative of synergy. C) Antagonist median effects plot of patient sample
indicative of additivity; CI<1 is indicative of synergy.

[6] = test system: BT-474 cells; assay: Flow cytometry of cell toxicity markers, BT-474, 72 h; format: cell-based, human; conditions: neratinib and/or tepotinib
Procedure: For analysis of cell toxicity, single cell suspensions were stained with TMRE (200 nM for 30 min), washed with FACS buffer, and stained with Annexin V-AlexaFluor647 (Biolegend; San Diego, CA) following the manufacturers’ instructions. The TMRE/Annexin V stained cells were resuspended in FACS buffer containing Sytox Blue (Thermo Fisher; Waltham, MA) and analyzed on a Novocyte 3000 FACS instrument and NovoExpress software (Agilent; Santa Clara, CA). For analysis of intracellular phosphoproteins by FACS, cells were stained using a Live/Dead fixable dye (Zombie NIR; BioLegend), fixed using 1.6% paraformaldehyde, permeabilized with cold-methanol, and then stained using antibodies towards AKT-pS473 (Cell Signaling Technology; Danvers, MA) and FAK-pS910 (BD Biosciences) (Table S2) prior to FACS analysis. […]
marker resistance to prolonged drug treatment – Normal signaling cell line, BT474. BT-474 […]
These cell lines were treated with neratinib […]
(§1) cytometry for cell death using Sytox Blue, apoptosis marker annexin V, and mitochondrial potential by TMRE staining. Flow cytometry histogram plots are representative of at least two […]
(§2) according to these markers.
(§3) (1 picture or pasted object on this page, not shown here)

[7] = test system: HER-family and c-Met receptors; assay: CELsignia inhibition of combined NRG/EGF/HGF cocktail signal, patient breast cancer cells; format: cell-based, human; conditions: patient C135; Neratinib 500 nM, tepotinib 50 nM; compared to growth factor only well
Procedure: To simulate this multiplexed perturbant condition and test the ability of the different targeted drugs to attenuate abnormal signaling from multiplexed agonists, patient breast cancer cells were stimulated with a growth factor cocktail of EGF, NRG1b, and HGF (N/E/H) to simultaneously initiate signaling via the HER-family and c-Met receptors. […] Cell index signaling units were calculated relative to the baseline values obtained from cells that were not treated with either agonists or antagonists.

[8] = test system: A549 cells; assay: Flow cytometry of cell toxicity markers, A549, 72 h; format: cell-based, human; conditions: neratinib and/or tepotinib
Procedure: For analysis of cell toxicity, single cell suspensions were stained with TMRE (200 nM for 30 min), washed with FACS buffer, and stained with Annexin V-AlexaFluor647 (Biolegend; San Diego, CA) following the manufacturers’ instructions. The TMRE/Annexin V stained cells were resuspended in FACS buffer containing Sytox Blue (Thermo Fisher; Waltham, MA) and analyzed on a Novocyte 3000 FACS instrument and NovoExpress software (Agilent; Santa Clara, CA). […]
marker resistance to prolonged drug treatment – Normal signaling cell line, A549. A549 cell […]
A549 cells were treated with neratinib […]
as §1, §2, §3

[9] = test system: AKT-pS473 and FAK-pS910 in HCC1954 cells; assay: Intracellular phospho-flow cytometry of AKT-pS473 and FAK-pS910, HCC1954; format: cell-based, human; conditions: 16 h
[10] = test system: MDA-MB-231 cells; assay: Flow cytometry of cell toxicity markers, MDA-MB-231; format: cell-based, human; conditions: 250 nM, singly or in combination, 16h
Procedure: (§4) For analysis of cell toxicity, single cell suspensions were stained with TMRE (200 nM for 30 min), washed with FACS buffer, and stained with Annexin V-AlexaFluor647 (Biolegend; San Diego, CA) following the manufacturers’ instructions. The TMRE/Annexin V stained cells were resuspended in FACS buffer containing Sytox Blue (Thermo Fisher; Waltham, MA) and analyzed on a Novocyte 3000 FACS instrument and NovoExpress software (Agilent; Santa Clara, CA). For analysis of intracellular phosphoproteins by FACS, cells were stained using a Live/Dead fixable dye (Zombie NIR; BioLegend), fixed using 1.6% paraformaldehyde, permeabilized with cold-methanol, and then stained using antibodies towards AKT-pS473 (Cell Signaling Technology; Danvers, MA) and FAK-pS910 (BD Biosciences) (Table S2) prior to FACS analysis.
Figure S8. CELsignia test is more sensitive and rapid for detecting anti-cancer drug efficacy compared to biological correlates – Normal signaling cell line, MDA-MB-231. MDA-MB-231 cells were normal signaling for HER and c-Met by the CELsignia test. To test flow cytometry markers for correlation a test was setup following the dose and time parameters used for the CELsignia test. The cells were seeded in collagen-fibrinogen (CF) coated culture plates and treated […]
indicated. Cells were harvested and then analyzed by flow cytometry for the markers shown following a period of 16h drug treatment. […]
these drugs according to the Sytox blue marker.
as §3
Figure S10. CELsignia test is more sensitive and rapid for detecting anti-cancer drug efficacy compared to biological correlates – Normal signaling cell line, MDA-MB-231 continued.
MDA-MB-231 cells were seeded in collagen-fibrinogen (CF) coated culture plates and treated 6h […]
Cells were harvested and then analyzed by flow cytometry for the markers shown following a period of 16h drug treatment. […]
according to annexin V marker.
Figure S12. CELsignia test is more sensitive and rapid for detecting anti-cancer drug efficacy […]
according to TMRE marker.

[11] = test system: BT-20 cells; assay: Flow cytometry of cell toxicity markers, BT-20; format: cell-based, human; conditions: 250 nM, singly or in combination, 16h
Procedure: as §4
Figure S7. CELsignia test is more sensitive and rapid for detecting anti-cancer drug efficacy compared to biological correlates – Normal signaling cell line, BT-20. BT-20 cells were normal signaling for HER and c-Met by the CELsignia test. To test flow cytometry markers for correlation a test was setup following the dose and time parameters used for the CELsignia test. The cells […]
(250 nM) and neratinib (250 nM), either singly or in combination, as indicated. Cells were harvested and then analyzed by flow cytometry for the markers shown following a period of 16h […]
as §3
Figure S9. CELsignia test is more sensitive and rapid for detecting anti-cancer drug efficacy compared to biological correlates – Normal signaling cell line, BT20 continued. BT-20 cells […]
Figure S11. CELsignia test is more sensitive and rapid for detecting anti-cancer drug efficacy compared to biological correlates – Normal signaling cell line, BT-20 continued. BT-20 cells

[12] = target: T1, c-Met; assay: cell-based
[13] = read-out: Percent inhibition of growth factor signal, patient C753
[14] = read-out: Percent inhibition of growth factor signal, patient C1061
[15] = read-out: Percent inhibition of growth factor signal, patient R66

T1 sequence (P08581 25-1390): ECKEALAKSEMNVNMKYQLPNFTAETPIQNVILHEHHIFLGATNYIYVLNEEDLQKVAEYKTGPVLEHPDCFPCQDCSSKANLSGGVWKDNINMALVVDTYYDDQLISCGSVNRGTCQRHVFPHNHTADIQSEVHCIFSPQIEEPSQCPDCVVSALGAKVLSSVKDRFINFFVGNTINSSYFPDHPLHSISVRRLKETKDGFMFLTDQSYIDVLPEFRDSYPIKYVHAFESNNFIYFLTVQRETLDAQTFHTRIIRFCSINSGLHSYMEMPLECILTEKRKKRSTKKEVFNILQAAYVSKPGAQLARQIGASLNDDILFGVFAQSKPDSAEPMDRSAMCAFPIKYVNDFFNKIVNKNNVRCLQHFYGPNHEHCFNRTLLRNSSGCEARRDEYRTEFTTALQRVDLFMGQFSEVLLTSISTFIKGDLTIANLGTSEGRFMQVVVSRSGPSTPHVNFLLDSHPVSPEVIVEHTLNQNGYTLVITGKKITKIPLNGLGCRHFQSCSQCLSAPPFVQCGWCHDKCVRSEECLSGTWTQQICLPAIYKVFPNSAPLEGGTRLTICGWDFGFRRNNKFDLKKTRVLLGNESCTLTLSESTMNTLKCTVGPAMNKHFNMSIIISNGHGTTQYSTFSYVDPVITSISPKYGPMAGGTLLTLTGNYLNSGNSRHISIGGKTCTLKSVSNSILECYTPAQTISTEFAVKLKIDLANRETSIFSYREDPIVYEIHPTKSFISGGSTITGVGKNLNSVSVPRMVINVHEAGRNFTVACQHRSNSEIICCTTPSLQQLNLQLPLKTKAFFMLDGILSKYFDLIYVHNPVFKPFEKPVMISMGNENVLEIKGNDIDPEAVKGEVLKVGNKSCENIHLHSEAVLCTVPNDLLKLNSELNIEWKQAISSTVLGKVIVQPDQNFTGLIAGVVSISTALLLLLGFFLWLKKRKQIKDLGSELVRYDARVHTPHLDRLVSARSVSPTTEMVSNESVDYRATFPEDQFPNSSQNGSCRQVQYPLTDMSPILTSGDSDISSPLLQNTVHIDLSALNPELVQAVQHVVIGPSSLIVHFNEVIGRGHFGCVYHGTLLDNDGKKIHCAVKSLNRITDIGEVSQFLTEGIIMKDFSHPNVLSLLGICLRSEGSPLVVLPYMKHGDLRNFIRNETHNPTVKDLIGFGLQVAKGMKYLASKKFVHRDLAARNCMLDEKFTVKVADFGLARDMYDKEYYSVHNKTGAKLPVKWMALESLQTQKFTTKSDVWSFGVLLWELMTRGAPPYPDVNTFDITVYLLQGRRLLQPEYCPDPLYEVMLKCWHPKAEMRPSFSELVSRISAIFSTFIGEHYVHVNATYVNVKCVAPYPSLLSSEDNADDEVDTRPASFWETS

SMILES: COc1cc2ncnc(Nc3ccc(F)c(Cl)c3)c2cc1NC(=O)/C=C/CN1CCCCC1 [Dacomitinib]
- IC50 [1]: 22.1 nM

SMILES: C#Cc1cccc(Nc2ncnc3cc(OCCOC)c(OCCOC)cc23)c1 [Erlotinib]
- Tumor reduction, drug arm versus control [2]: 5% (p = 0.870)
- inhibition at 0.5 µM [3, 13]: 15%
- inhibition at 0.5 µM [3, 14]: 7%
- inhibition at 0.5 µM [3, 15]: 38%
- HER/c-met inhibition (%) [4]: 9.2 ± 10.3 (n = 2) %

SMILES: C=CC(=O)N1CCC[C@@H](n2nc(-c3ccc(Oc4ccccc4)cc3)c3c(N)ncnc32)C1 [Ibrutinib]
- IC50 [1]: 13.1 nM

SMILES: CS(=O)(=O)CCNCc1ccc(-c2ccc3ncnc(Nc4ccc(OCc5cccc(F)c5)c(Cl)c4)c3c2)o1 [Lapatinib]
- IC50 [1]: 137 nM

SMILES: CCOc1cc2ncc(C#N)c(Nc3ccc(OCc4ccccn4)c(Cl)c3)c2cc1NC(=O)/C=C/CN(C)C [Neratinib]
- Tumor reduction, drug arm versus control [2]: 54% (p = 0.003)
- Tumor reduction, drug arm versus control ([2]; listed as neratinib): 54%
- IC50 [5]: 15 nM
- Response according to Sytox Blue, annexin V and TMRE markers [6]: do not respond
- Order of efficacy against response to simultaneous NRG, EGF and HGF [7]: more efficacious
- HER/c-met inhibition (%) [4]: 14.6 ± 29.6 (n = 4) %
- Response according to Sytox Blue, annexin V and TMRE markers [8]: do not respond
- distribution of pFAK high cells [9]: not significantly altered
- frequency of pAKT high cells ([9]; singly and in combination with tepotinib): dose-dependent decline
- Response according to TMRE marker [10]: do not respond
- Response according to annexin V marker [10]: do not respond
- Response according to the Sytox blue marker [10]: do not respond
- Response according to TMRE marker [11]: do not respond
- Response according to annexin V marker [11]: do not respond
- Response according to the Sytox blue marker [11]: do not respond
- IC50 [1]: 4.81 nM

SMILES: C=CC(=O)N1CCC(Oc2cc3c(Nc4ccc(Cl)c(Cl)c4F)ncnc3cc2OC)CC1 [Poziotinib]
- IC50 [1]: 1.23 nM

SMILES: CNC(=O)CN1CCC(Oc2cc3c(Nc4cccc(Cl)c4F)ncnc3cc2OC)CC1 [Sapitinib]
- IC50 [1]: 41.3 nM

SMILES: C[C@@H](c1ccc2nccn2c1)n1nnc2ncc(-c3cnn(C)c3)nc21 [Savolitinib]
- IC50 [12]: 3.56 nM

SMILES: CN1CCC(COc2cnc(-c3cccc(Cn4nc(-c5cccc(C#N)c5)ccc4=O)c3)nc2)CC1 [Tepotinib]
- Tumor reduction, drug arm versus control [2]: 10% (p = 0.780)
- Adverse observations in treated cohort ([2]; oral gavage QD, Tepotinib 50 mg/kg, Neratinib + Tepotinib 40 + 50 mg/kg): ^#Due to weight loss, 1 mouse given 3 day dose holiday due, and 1 mouse given 7 day dose holiday
- Response according to Sytox Blue, annexin V and TMRE markers [6]: do not respond
- Response according to Sytox Blue, annexin V and TMRE markers [8]: do not respond
- effect on pFAK and pAKT population distributions ([9]; single agent): no detectable dose-dependent effect
- Response according to TMRE marker [10]: do not respond
- Response according to annexin V marker [10]: do not respond
- Response according to the Sytox blue marker [10]: do not respond
- Response according to TMRE marker [11]: do not respond
- Response according to annexin V marker [11]: do not respond
- Response according to the Sytox blue marker [11]: do not respond

SMILES: Cc1cc(Nc2ncnc3ccc(NC4=NC(C)(C)CO4)cc23)ccc1Oc1ccn2ncnc2c1 [Tucatinib]
- inhibition at 0.25 µM [3, 13]: -6%
- inhibition at 0.25 µM [3, 14]: -13%
- inhibition at 0.25 µM [3, 15]: 25%
- IC50 [1]: 333 nM
